Measurements reported in the supplement of paper PMC10307832.

Key:
Test in all cases: relative viability (nuclei count vs DMSO), 5 days (fraction); higher = more cells survive
NCI-H2023 = test system: NCI-H2023
Summary of the method: (§1)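 The day after seeding in 1536-well plates, lung cancer cell lines were treated by pin tool with a single drug, or with a fixed anchor-drug dose together with five library-drug doses (not always all listed) in √10 steps. After 5 days, a combined fix-and-stain solution (final 0.05% Triton X-100, 1% formaldehyde, 1 ug/ml Hoechst) was added. Nuclei counted on 4× images gave relative viability as treated counts over vehicle counts, reported as the median of duplicate plates.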

ChaGo-K-1 = test system: ChaGo-K-1
Summary of the method: as §1

NCI-H1944 = test system: NCI-H1944
Summary of the method: as §1

LC-2-ad = test system: LC-2-ad
Summary of the method: as §1

NCI-H23 = test system: NCI-H23
Summary of the method: as §1

HARA = test system: HARA
Summary of the method: as §1

NCI-H1793 = test system: NCI-H1793
Summary of the method: as §1

NCI-H2126 = test system: NCI-H2126
Summary of the method: as §1

NCI-H2228 = test system: NCI-H2228
Summary of the method: as §1

NCI-H1993 = test system: NCI-H1993
Summary of the method: as §1

SK-LU-1 = test system: SK-LU-1
Summary of the method: as §1

HCC-15 = test system: HCC-15
Summary of the method: as §1

COR-L23 = test system: COR-L23
Summary of the method: as §1

HOP-62 = test system: HOP-62
Summary of the method: as §1

NCI-H1395 = test system: NCI-H1395
Summary of the method: as §1

HCC-366 = test system: HCC-366
Summary of the method: as §1

NCI-H2405 = test system: NCI-H2405
Summary of the method: as §1

NCI-H838 = test system: NCI-H838
Summary of the method: as §1

EMC-BAC-2 = test system: EMC-BAC-2
Summary of the method: as §1

ABC-1 = test system: ABC-1
Summary of the method: as §1

HCC-78 = test system: HCC-78
Summary of the method: as §1

NCI-H358 = test system: NCI-H358
Summary of the method: as §1

Work on `CCN(CC)CCCCNc1ncc2cc(-c3cc(OC)cc(OC)c3)c(NC(=O)NC(C)(C)C)nc2n1` + O=C(c1cc(Cc2n[nH]c(=O)c3ccccc23)ccc1F)N1CCN(C(=O)C2CC2)CC1 [Olaparib] (partner 8 µM) yielded a relative viability (NCI-H2023; first compound 0.01 µM) of 0.521, a relative viability (NCI-H2023; first compound 0.03162 µM) of 0.512 and a relative viability (NCI-H2023; first compound 0.1 µM) of 0.668. It also gave a relative viability (NCI-H2023; first compound 0.3162 µM) of 0.55, a relative viability (NCI-H2023; first compound 1 µM) of 0.449 and a relative viability (ChaGo-K-1; first compound 0.01 µM) of 0.444. For the same compound, the relative viability (ChaGo-K-1; first compound 0.03162 µM) was 0.416, the relative viability (ChaGo-K-1; first compound 0.1 µM) was 0.442 and the relative viability (ChaGo-K-1; first compound 0.3162 µM) was 0.46. For the same compound, the relative viability (ChaGo-K-1; first compound 1 µM) was 0.388, the relative viability (NCI-H1944; first compound 0.01 µM) was 0.363 and the relative viability (NCI-H1944; first compound 0.03162 µM) was 0.415. It also gave a relative viability (NCI-H1944; first compound 0.1 µM) of 0.474, a relative viability (NCI-H1944; first compound 0.3162 µM) of 0.428 and a relative viability (NCI-H1944; first compound 1 µM) of 0.394. It also gave a relative viability (LC-2-ad; first compound 0.01 µM) of 0.776, a relative viability (LC-2-ad; first compound 0.03162 µM) of 0.744 and a relative viability (LC-2-ad; first compound 0.1 µM) of 0.787. The relative viability (LC-2-ad; first compound 0.3162 µM) was 0.788, the relative viability (LC-2-ad; first compound 1 µM) was 0.668 and the relative viability (NCI-H23; first compound 0.01 µM) was 0.306. The relative viability (NCI-H23; first compound 0.03162 µM) was 0.226, the relative viability (NCI-H23; first compound 0.1 µM) was 0.375 and the relative viability (NCI-H23; first compound 0.3162 µM) was 0.362. The relative viability (NCI-H23; first compound 1 µM) was 0.332, the relative viability (HARA; first compound 0.01 µM) was 0.697 and the relative viability (HARA; first compound 0.03162 µM) was 0.62. It also gave a relative viability (HARA; first compound 0.1 µM) of 0.561, a relative viability (HARA; first compound 0.3162 µM) of 0.811 and a relative viability (HARA; first compound 1 µM) of 0.443. It also gave a relative viability (NCI-H1793; first compound 0.01 µM) of 0.676, a relative viability (NCI-H1793; first compound 0.03162 µM) of 0.839 and a relative viability (NCI-H1793; first compound 0.1 µM) of 1.23. For the same compound, the relative viability (NCI-H1793; first compound 0.3162 µM) was 0.926, the relative viability (NCI-H1793; first compound 1 µM) was 0.54 and the relative viability (NCI-H2126; first compound 0.01 µM) was 1.03. It also gave a relative viability (NCI-H2126; first compound 0.03162 µM) of 0.948, a relative viability (NCI-H2126; first compound 0.1 µM) of 0.976 and a relative viability (NCI-H2126; first compound 0.3162 µM) of 0.984. For the same compound, the relative viability (NCI-H2126; first compound 1 µM) was 0.899, the relative viability (NCI-H2228; first compound 0.01 µM) was 0.799 and the relative viability (NCI-H2228; first compound 0.03162 µM) was 0.8. It also gave a relative viability (NCI-H2228; first compound 0.1 µM) of 0.824, a relative viability (NCI-H2228; first compound 0.3162 µM) of 0.547 and a relative viability (NCI-H2228; first compound 1 µM) of 0.571. For the same compound, the relative viability (NCI-H1993; first compound 0.01 µM) was 1.01, the relative viability (NCI-H1993; first compound 0.03162 µM) was 1.01 and the relative viability (NCI-H1993; first compound 0.1 µM) was 1.14. The relative viability (NCI-H1993; first compound 0.3162 µM) was 1.26, the relative viability (NCI-H1993; first compound 1 µM) was 0.99 and the relative viability (SK-LU-1; first compound 0.01 µM) was 0.447. It also gave a relative viability (SK-LU-1; first compound 0.03162 µM) of 0.404, a relative viability (SK-LU-1; first compound 0.1 µM) of 0.477 and a relative viability (SK-LU-1; first compound 0.3162 µM) of 0.472. The relative viability (SK-LU-1; first compound 1 µM) was 0.433, the relative viability (HCC-15; first compound 0.01 µM) was 0.681 and the relative viability (HCC-15; first compound 0.03162 µM) was 0.777. For the same compound, the relative viability (HCC-15; first compound 0.1 µM) was 0.783, the relative viability (HCC-15; first compound 0.3162 µM) was 0.82 and the relative viability (HCC-15; first compound 1 µM) was 0.728. For the same compound, the relative viability (COR-L23; first compound 0.01 µM) was 0.365, the relative viability (COR-L23; first compound 0.03162 µM) was 0.378 and the relative viability (COR-L23; first compound 0.1 µM) was 0.368. For the same compound, the relative viability (COR-L23; first compound 0.3162 µM) was 0.403, the relative viability (COR-L23; first compound 1 µM) was 0.344 and the relative viability (HOP-62; first compound 0.01 µM) was 0.608. The relative viability (HOP-62; first compound 0.03162 µM) was 0.523, the relative viability (HOP-62; first compound 0.1 µM) was 0.416 and the relative viability (HOP-62; first compound 0.3162 µM) was 0.823. It also gave a relative viability (HOP-62; first compound 1 µM) of 0.383, a relative viability (NCI-H1395; first compound 0.01 µM) of 0.46 and a relative viability (NCI-H1395; first compound 0.03162 µM) of 0.467. The relative viability (NCI-H1395; first compound 0.1 µM) was 0.478, the relative viability (NCI-H1395; first compound 0.3162 µM) was 0.497 and the relative viability (NCI-H1395; first compound 1 µM) was 0.431. It also gave a relative viability (HCC-366; first compound 0.01 µM) of 0.323, a relative viability (HCC-366; first compound 0.03162 µM) of 0.374 and a relative viability (HCC-366; first compound 0.1 µM) of 0.362. The relative viability (HCC-366; first compound 0.3162 µM) was 0.405, the relative viability (HCC-366; first compound 1 µM) was 0.346 and the relative viability (NCI-H2405; first compound 0.01 µM) was 0.873. It also gave a relative viability (NCI-H2405; first compound 0.03162 µM) of 0.88, a relative viability (NCI-H2405; first compound 0.1 µM) of 1.03 and a relative viability (NCI-H2405; first compound 0.3162 µM) of 0.952. The relative viability (NCI-H2405; first compound 1 µM) was 0.928, the relative viability (NCI-H838; first compound 0.01 µM) was 0.824 and the relative viability (NCI-H838; first compound 0.03162 µM) was 0.835. The relative viability (NCI-H838; first compound 0.1 µM) was 0.743, the relative viability (NCI-H838; first compound 0.3162 µM) was 0.745 and the relative viability (NCI-H838; first compound 1 µM) was 0.603. For the same compound, the relative viability (EMC-BAC-2; first compound 0.03162 µM) was 0.485, the relative viability (EMC-BAC-2; first compound 0.1 µM) was 0.56 and the relative viability (EMC-BAC-2; first compound 0.3162 µM) was 0.507. It also gave a relative viability (EMC-BAC-2; first compound 1 µM) of 0.525, a relative viability (ABC-1; first compound 0.03162 µM) of 0.754 and a relative viability (ABC-1; first compound 0.1 µM) of 1.04. For the same compound, the relative viability (ABC-1; first compound 0.3162 µM) was 0.93, the relative viability (ABC-1; first compound 1 µM) was 1.01 and the relative viability (HCC-78; first compound 0.01 µM) was 0.82. The relative viability (HCC-78; first compound 0.03162 µM) was 0.782, the relative viability (HCC-78; first compound 0.1 µM) was 0.802 and the relative viability (HCC-78; first compound 0.3162 µM) was 0.94. For the same compound, the relative viability (HCC-78; first compound 1 µM) was 0.771, the relative viability (NCI-H358; first compound 0.01 µM) was 0.683 and the relative viability (NCI-H358; first compound 0.03162 µM) was 0.642. The relative viability (NCI-H358; first compound 0.1 µM) was 0.744, the relative viability (NCI-H358; first compound 0.3162 µM) was 0.69 and the relative viability (NCI-H358; first compound 1 µM) was 0.469.
